Results: the NIST ThermoML archive (doi:10.1016/j.fluid.2017.12.026)
“And” between values parts separate entries of the source, which are not always exact repeats. Equal entries are not always repeated.

Settings: Coaxial cylinder method

CCCCC [pentane]
Settings | thermal conductivity
331.2 K, 49500 kPa, Liquid | 0.1283 W/m/K
331.2 K, 50000 kPa, Liquid | 0.1278 W/m/K
386 K, 5061 kPa, Liquid | 0.09007 W/m/K
386 K, 10175 kPa, Liquid | 0.09446 W/m/K
386 K, 18875 kPa, Liquid | 0.0996 W/m/K
386 K, 20275 kPa, Liquid | 0.1023 W/m/K
386 K, 30275 kPa, Liquid | 0.1082 W/m/K
386 K, 34475 kPa, Liquid | 0.1107 W/m/K
386 K, 40275 kPa, Liquid | 0.1122 W/m/K
386 K, 49975 kPa, Liquid | 0.1184 W/m/K
386 K, 53475 kPa, Liquid | 0.1203 W/m/K
387.83 K, 75 kPa, Gas | 0.02437 W/m/K
387.83 K, 100 kPa, Gas | 0.02484 W/m/K
399.6 K, 2900 kPa, Liquid | 0.08457 W/m/K
399.6 K, 3000 kPa, Liquid | 0.08493 W/m/K
399.6 K, 4000 kPa, Liquid | 0.08522 W/m/K
399.6 K, 4500 kPa, Liquid | 0.08602 W/m/K
399.6 K, 5000 kPa, Liquid | 0.0869 W/m/K
399.6 K, 6000 kPa, Liquid | 0.088 W/m/K
399.6 K, 7000 kPa, Liquid | 0.08901 W/m/K
399.6 K, 7500 kPa, Liquid | 0.08952 W/m/K
399.6 K, 8000 kPa, Liquid | 0.0899 W/m/K
399.6 K, 9500 kPa, Liquid | 0.09127 W/m/K
399.6 K, 10000 kPa, Liquid | 0.09171 W/m/K
399.6 K, 11000 kPa, Liquid | 0.09237 W/m/K
399.6 K, 12000 kPa, Liquid | 0.09323 W/m/K
399.6 K, 13000 kPa, Liquid | 0.09372 W/m/K
399.6 K, 14000 kPa, Liquid | 0.09464 W/m/K
399.6 K, 15000 kPa, Liquid | 0.09518 W/m/K
399.6 K, 16000 kPa, Liquid | 0.09601 W/m/K
399.6 K, 17000 kPa, Liquid | 0.09671 W/m/K
399.6 K, 18000 kPa, Liquid | 0.09742 W/m/K
399.6 K, 19000 kPa, Liquid | 0.09836 W/m/K
399.6 K, 20000 kPa, Liquid | 0.0989 W/m/K
399.6 K, 21000 kPa, Liquid | 0.09955 W/m/K
399.6 K, 22000 kPa, Liquid | 0.1001 W/m/K
399.6 K, 23500 kPa, Liquid | 0.1011 W/m/K
399.6 K, 25000 kPa, Liquid | 0.1022 W/m/K
399.6 K, 26000 kPa, Liquid | 0.1026 W/m/K
399.6 K, 27000 kPa, Liquid | 0.1031 W/m/K
399.6 K, 28000 kPa, Liquid | 0.1037 W/m/K
399.6 K, 29000 kPa, Liquid | 0.1047 W/m/K
399.6 K, 30000 kPa, Liquid | 0.1051 W/m/K
399.6 K, 31000 kPa, Liquid | 0.1056 W/m/K
399.6 K, 33000 kPa, Liquid | 0.1066 W/m/K
399.6 K, 34000 kPa, Liquid | 0.1071 W/m/K
399.6 K, 35000 kPa, Liquid | 0.1076 W/m/K
399.6 K, 35301 kPa, Liquid | 0.1079 W/m/K
421.85 K, 100 kPa, Gas | 0.02874 W/m/K and 0.02895 W/m/K
421.85 K, 1640 kPa, Liquid | 0.07566 W/m/K
421.85 K, 1650 kPa, Liquid | 0.07566 W/m/K
421.85 K, 1660 kPa, Liquid | 0.07566 W/m/K
421.85 K, 1680 kPa, Liquid | 0.07566 W/m/K
421.85 K, 1700 kPa, Liquid | 0.07566 W/m/K
421.85 K, 1710 kPa, Liquid | 0.07566 W/m/K
421.85 K, 1720 kPa, Liquid | 0.07566 W/m/K
421.85 K, 1730 kPa, Liquid | 0.07596 W/m/K
421.85 K, 1750 kPa, Liquid | 0.07566 W/m/K
421.85 K, 1764 kPa, Liquid | 0.07568 W/m/K
421.85 K, 1772 kPa, Liquid | 0.07584 W/m/K
421.85 K, 1910 kPa, Liquid | 0.07624 W/m/K
421.85 K, 1946 kPa, Liquid | 0.0762 W/m/K
421.85 K, 1954 kPa, Liquid | 0.07621 W/m/K
422.2 K, 2518 kPa, Liquid | 0.07714 W/m/K
422.2 K, 5041 kPa, Liquid | 0.08091 W/m/K
422.2 K, 10475 kPa, Liquid | 0.08676 W/m/K
422.2 K, 18675 kPa, Liquid | 0.09347 W/m/K
422.2 K, 18775 kPa, Liquid | 0.09348 W/m/K
422.2 K, 20475 kPa, Liquid | 0.09413 W/m/K
422.2 K, 30575 kPa, Liquid | 0.1002 W/m/K
422.2 K, 30675 kPa, Liquid | 0.1007 W/m/K
422.2 K, 40275 kPa, Liquid | 0.1061 W/m/K
422.2 K, 48075 kPa, Liquid | 0.1104 W/m/K
422.2 K, 52975 kPa, Liquid | 0.1123 W/m/K
425.73 K, 100 kPa, Gas | 0.02926 W/m/K
425.74 K, 1560 kPa, Gas | 0.0319 W/m/K
425.8 K, 100 kPa, Gas | 0.0294 W/m/K
425.82 K, 100 kPa, Gas | 0.02926 W/m/K
426.24 K, 100 kPa, Gas | 0.02935 W/m/K
426.25 K, 100 kPa, Gas | 0.02935 W/m/K
426.25 K, 1210 kPa, Gas | 0.0316 W/m/K
426.25 K, 1280 kPa, Gas | 0.03151 W/m/K
